Assay [1] addresses T1, truncated His-MBP-Tev-KLHDC2 (residues 1-363) (Homo sapiens, UniProt Q9Y2U9).
T1 construct: truncated His -MBP-Tev-KLHDC2 (residues 1-363) purified from E. coli; made in house; host or cells: E. coli
T1 sequence (Q9Y2U9 1-363): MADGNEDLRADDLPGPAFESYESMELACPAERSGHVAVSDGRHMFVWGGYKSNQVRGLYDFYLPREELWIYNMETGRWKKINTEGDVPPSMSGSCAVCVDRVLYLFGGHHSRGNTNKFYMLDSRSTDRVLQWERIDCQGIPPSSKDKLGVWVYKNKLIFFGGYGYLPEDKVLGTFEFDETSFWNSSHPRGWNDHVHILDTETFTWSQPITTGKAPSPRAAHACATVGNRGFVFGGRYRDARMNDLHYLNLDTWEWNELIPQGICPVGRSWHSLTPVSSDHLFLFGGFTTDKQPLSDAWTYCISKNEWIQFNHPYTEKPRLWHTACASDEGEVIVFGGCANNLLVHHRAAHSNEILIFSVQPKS
In words: KLHDC2 FP competition binding assay. The following applies: 15 nM KLHDC2 (residues 1-363), 10 nM fluorescein-labeled diglycine peptide probe, read-out: KLHDC2 binding Human FP: average external IC50.
Method: FP competition binding assays were performed using 15 nM truncated His -MBP-Tev-KLHDC2 (residues 1-363) purified from E. coli, 10 nM fluorescein-labeled diglycine peptide probe, and test compounds in assay buffer consisting of 50 mM HEPES-Na pH 7.5, 100 mM NaCl, 2 mM DTT, 0.005% Tween-20 with a final volume of 20 uL. Compound stocks were dissolved at 10 mM in 100% DMSO and 11 point titration with 3 fold serial dilution was performed in black, flat bottom 384 well microplates. Plates were incubated at room temperature for 30 minutes. Plates were centrifuged at 1000 rpm for 1 min, data were collected using an Envision plate reader in fluorescence polarization mode with excitation filter FITC FP at 480 nm, emission filter FITC FP P-pol at 535 nm and FITC FP S-pol at 535 nm. FP signal was calculated using the equation (mP=1000*(S-G*P)/(S+G*P), G-factor=1.0) and % Inhibition was calculated using no-protein controls for 100% inhibition and DMSO only reactions for 0l % inhibition (yes).

Assay [2] concerns the target T1, truncated His-MBP-Tev-KLHDC2 (residues 1-363). In words: KLHDC2 HTRF binding assay. The following applies: 1 nM KLHDC2 (residues 1-363), fluorescein-labeled diglycine peptide probe.

Structures are written as SMILES.

Turning to `O=C(O)Cn1cc(N2CC[C@]3(CCN(c4cccnc4)C3)C2=O)ccc1=O` [I-1], the IC50 in assay [1] and in assay [2] was > 5000 nM throughout.
In the case of `O=C(O)Cn1cc(N2CC[C@@]3(CCN(c4cccnc4)C3)C2=O)ccc1=O` [I-2], the values for the IC50 in assay [1] and in assay [2] were > 5000 nM and 500 to 5000 nM, respectively.
On the same counts, the results for `O=C(O)Cn1cc(NC(=O)[C@H]2CCCN(c3cncc([N+](=O)[O-])c3)C2)ccc1=O` [I-4] are < 50 nM and < 50 nM.
For the compound `COc1cccc2c(N3CCC[C@H](C(=O)Nc4ccc(Cl)c(CC(=O)O)c4)C3)cncc12` [I-5], the IC50 in assay [1] and in assay [2] was 50 to 500 nM each time.
For the compound `COc1cccc2c(N3CCC[C@H](C(=O)Nc4ccc(F)c(CC(=O)O)c4)C3)cncc12` [I-6], the values for the IC50 in assay [1] and in assay [2] were 50 to 500 nM and < 50 nM, respectively.
On the same counts, the results for `O=C(O)Cc1cc(NC(=O)[C@H]2CCCN(c3cncc4ccccc34)C2)ccc1Cl` [I-7] are 50 to 500 nM and < 50 nM.
Take `COc1cccc2c(N3CCC[C@H](C(=O)Nc4ccc(=O)n(CC(=O)O)c4)C3)cncc12` [I-9]: the 50% inhibitory concentration (IC50) in assay [1] and in assay [2] was < 50 nM in each case.
With `O=C(O)Cn1cc(NC(=O)c2cccc(-c3cccnc3)c2C(F)(F)F)ccc1=O` [I-10], the IC50 (usually the point on the concentration scale where inhibition reaches its midpoint) in assay [1] is > 5000 nM; in assay [2], 500 to 5000 nM.
The like results for `O=C(O)Cn1cc(NC(=O)[C@@H]2Cc3ccccc3N(c3cccnc3)C2)ccc1=O` [I-11] were, in that order, 500 to 5000 nM and 500 to 5000 nM.
The like results for `O=C(O)Cn1cc(NC(=O)[C@H]2Cc3ccccc3N(c3cccnc3)C2)ccc1=O` [I-12] were, in that order, > 5000 nM and > 5000 nM.
`COc1cncc(-c2cccc(C(=O)Nc3ccc4c(c3)CC(=O)O4)c2)c1` [I-13]: the IC50 in assay [1] and in assay [2] was > 5000 nM in each case.
Take `O=C(O)Cn1cc(N2CC[C@@]3(CCCN(c4cccnc4)C3)C2=O)ccc1=O` [I-14]: the IC50 in assay [1] and in assay [2] was > 5000 nM throughout.
With `O=C(O)Cn1cc(N2CC[C@]3(CCCN(c4cccnc4)C3)C2=O)ccc1=O` [I-15], the IC50 was > 5000 nM in assay [1] and 50 to 500 nM in assay [2].
For `O=C(O)Cn1cc(N2C[C@]3(CCCN(c4cccnc4)C3)CC2=O)ccc1=O` [I-16], the IC50 in assay [1] and in assay [2] was > 5000 nM throughout.
`O=C(O)Cn1cc(N2C[C@@]3(CCCN(c4cccnc4)C3)CC2=O)ccc1=O` [I-17]: the IC50 in assay [1] and in assay [2] was > 5000 nM each time.
Take `CNc1cncc(N2CCC[C@H](C(=O)Nc3ccc(Cl)c(CC(=O)O)c3)C2)c1` [I-18]: the IC50 fell in the range of 500 to 5000 nM in assay [1] and 50 to 500 nM in assay [2].
On to `CNc1cncc(N2CCC[C@H](C(=O)Nc3ccc(F)c(CC(=O)O)c3)C2)c1` [I-19], for which the IC50 in assay [1] fell in the range of 500 to 5000 nM; in assay [2], 50 to 500 nM.
The like results for `COc1cncc(N2CCC[C@H](C(=O)Nc3ccc(Cl)c(CC(=O)O)c3)C2)c1` [I-20] were, in that order, 500 to 5000 nM and 50 to 500 nM.
Take `CCc1cncc(N2CCC[C@H](C(=O)Nc3ccc(Cl)c(CC(=O)O)c3)C2)c1` [I-21]: the values for the IC50 in assay [1] and in assay [2] were 500 to 5000 nM and 50 to 500 nM, respectively.
In the case of `COc1cncc(-c2cccc(C(=O)Nc3ccc(O)c(CC(=O)O)c3)c2)c1` [I-22], the IC50 in assay [1] and in assay [2] was > 5000 nM in each case.
On to `CCc1cncc(N2CCC[C@H](C(=O)Nc3ccc(F)c(CC(=O)O)c3)C2)c1` [I-23], for which the results for the IC50 in assay [1] and in assay [2] were 50 to 500 nM and < 50 nM, respectively.
With `COc1cncc(N2CCC[C@H](C(=O)Nc3ccc(F)c(CC(=O)O)c3)C2)c1` [I-24], the IC50 in assay [1] and in assay [2] was 50 to 500 nM each time.
Consider `N#Cc1cc(=O)n(CC(=O)O)cc1NC(=O)c1cccc(-c2cccnc2)c1` [I-25], for which the figures for the IC50 in assay [1] and in assay [2] were 500 to 5000 nM and 50 to 500 nM, respectively.
For `N#Cc1cc(=O)n(CC(=O)O)cc1NC(=O)[C@H]1CCCN(c2cccnc2)C1` [I-26], the IC50 in assay [1] lay in the range of 500 to 5000 nM; in assay [2], 50 to 500 nM.
Regarding `O=C(O)Cc1cc(NC(=O)[C@@H]2CCCN(c3cccnc3)C2)ccc1F` [I-27], the IC50 in assay [1] and in assay [2] was > 5000 nM throughout.
Consider `O=C(O)Cn1cc(NC(=O)[C@H]2CCCN(c3cccnc3)CC2)ccc1=O` [I-28], for which the results for the IC50 in assay [1] and in assay [2] were > 5000 nM and 500 to 5000 nM, respectively.
As to `O=C(O)Cn1cc(NC(=O)[C@@H]2CCCN(c3cccnc3)CC2)ccc1=O` [I-29], the values for the 50% inhibitory concentration (IC50) in assay [1] and in assay [2] were > 5000 nM and 500 to 5000 nM, respectively.
As for `O=C(O)Cc1cc(NC(=O)[C@@H]2CCCN(c3cccnc3)C2)ccc1Cl` [I-30], the IC50 in assay [1] and in assay [2] was > 5000 nM in each case.
Regarding `Cn1cc(NC(=O)c2cccc(-c3cccnc3)c2)cc(C(=O)O)c1=O` [I-31], the IC50 in assay [1] and in assay [2] was > 5000 nM each time.
For the compound `O=C(O)Cn1cc(NC(=O)[C@H]2CN(c3cccnc3)Cc3ccccc32)ccc1=O` [I-32], the IC50 in assay [1] is > 5000 nM; in assay [2], 500 to 5000 nM.
In the case of `O=C(O)Cc1cc(NC(=O)[C@H]2CCCN(c3cccnc3)C2)ccc1F` [I-33], the results for the IC50 in assay [1] and in assay [2] were 500 to 5000 nM and 50 to 500 nM, respectively.
The like results for `O=C(O)Cn1cc(NC(=O)[C@@H]2CN(c3cccnc3)Cc3ccccc32)ccc1=O` [I-34] were, in that order, > 5000 nM and > 5000 nM.
Take `O=C(O)Cc1cc(NC(=O)[C@H]2CCCN(c3cccnc3)C2)ccc1Cl` [I-35]: the results for the IC50 in assay [1] and in assay [2] were 500 to 5000 nM and 50 to 500 nM, respectively.
Consider `CN(CC(C)(C)C(=O)Nc1ccc(=O)n(CC(=O)O)c1)c1cccnc1` [I-36], for which the IC50 in assay [1] and in assay [2] was > 5000 nM throughout.
Consider `O=C(Nc1ccnc(C(=O)O)c1)c1cccc(-c2cccnc2)c1` [I-37], for which the IC50 in assay [1] and in assay [2] was > 5000 nM each time.
With `O=C(O)Cn1cc(N2CCC3(CCN(c4cccnc4)CC3)C2=O)ccc1=O` [I-38], the IC50 in assay [1] and in assay [2] was > 5000 nM in each case.
In the case of `CCc1cncc(N2CCC[C@H](C(=O)Nc3ccc(=O)n(CC(=O)O)c3)C2)c1` [I-39], the values for the 50% inhibitory concentration (IC50) in assay [1] and in assay [2] were 50 to 500 nM and < 50 nM, respectively.
The like results for `CNc1cncc(N2CCC[C@H](C(=O)Nc3ccc(=O)n(CC(=O)O)c3)C2)c1` [I-40] were, in that order, 50 to 500 nM and < 50 nM.
Consider `O=C(O)Cn1cc(NC(=O)[C@H]2CCCN(c3cncc4ccccc34)C2)ccc1=O` [I-41], for which the IC50 in assay [1] and in assay [2] was < 50 nM in each case.
Consider `O=C(O)Cn1cc(NC(=O)c2cccc(-c3cccnc3)c2Cl)ccc1=O` [I-42], for which the values for the IC50 in assay [1] and in assay [2] were > 5000 nM and 500 to 5000 nM, respectively.
As to `CN(CC1(C(=O)Nc2ccc(=O)n(CC(=O)O)c2)CC1)c1cccnc1` [I-43], the IC50 in assay [1] and in assay [2] was > 5000 nM in each case.
As to `COc1cncc(N2CCC[C@H](C(=O)Nc3ccc(=O)n(CC(=O)O)c3)C2)c1` [I-45], the IC50 in assay [1] was 50 to 500 nM; in assay [2], < 50 nM.
In the case of `CC(C)c1cc(=O)n(CC(=O)O)cc1NC(=O)[C@H]1CCCN(c2cccnc2)C1` [I-46], the IC50 is > 5000 nM in assay [1] and 500 to 5000 nM in assay [2].
Consider `COc1cncc(-c2cccc(C(=O)Nc3ccc(=O)n(CC(=O)O)c3)c2)c1` [I-47], for which the IC50 in assay [1] is 500 to 5000 nM; in assay [2], < 50 nM.
Take `O=C(O)Cn1cc(NC(=O)[C@H]2CCN(c3cccnc3)C2)ccc1=O` [I-48]: the IC50 is > 5000 nM in assay [1] and 500 to 5000 nM in assay [2].
On to `O=C(O)Cn1cc(NC(=O)[C@@H]2CCN(c3cccnc3)C2)ccc1=O` [I-49], for which the IC50 in assay [1] and in assay [2] was > 5000 nM in each case.
In the case of `CCc1cc(=O)n(CC(=O)O)cc1NC(=O)[C@H]1CCCN(c2cccnc2)C1` [I-50, 2-[4-ethyl-2-oxo-5-[(3S)-1-(3-pyridyl)piperidine-3-carbonyl|amino]-1-pyridyl]acetic acid], the figures for the IC50 in assay [1] and in assay [2] were 500 to 5000 nM and 50 to 500 nM, respectively.
The like results for `O=C(Nc1ccc(=O)n([C@@H](F)C(=O)O)c1)c1cccc(-c2cccnc2)c1` [I-51] were, in that order, > 5000 nM and 500 to 5000 nM.
On to `O=C(Nc1ccc(=O)n([C@H](F)C(=O)O)c1)c1cccc(-c2cccnc2)c1` [I-52], for which the IC50 in assay [1] and in assay [2] was > 5000 nM in each case.
As for `CC1CC(C(=O)Nc2ccc(=O)n(CC(=O)O)c2)CN(c2cccnc2)C1` (stereo not shown) [I-53], the IC50 in assay [1] fell in the range of 500 to 5000 nM; in assay [2] it was 50 to 500 nM.
As to `CCc1cc(=O)n(CC(=O)O)cc1NC(=O)c1cccc(-c2cccnc2)c1` [I-54], the IC50 in assay [1] fell in the range of 500 to 5000 nM; in assay [2], 50 to 500 nM.
In the case of `O=C(O)Cc1cc(NC(=O)c2cccc(-c3cccnc3)c2)ccc1F` [I-55], the IC50 in assay [1] is > 5000 nM; in assay [2], 500 to 5000 nM.
On to `O=C(O)Cn1cc(Nc2ncc(-c3cccnc3)c3ccccc23)ccc1=O` [I-56], for which the IC50 in assay [1] was > 5000 nM; in assay [2] it was 500 to 5000 nM.
On the same counts, the results for `O=C(O)Cn1cc(NC(=O)[C@H]2CCCN(c3cccnc3)C2)c(C2CC2)cc1=O` [I-57] are > 5000 nM and > 5000 nM.
Consider `O=C(O)Cn1cc(NC(=O)[C@@H]2CCCN(c3cccnc3)C2)c(C2CC2)cc1=O` [I-58], for which the half-maximal inhibitory concentration (IC50) was > 5000 nM in assay [1] and 500 to 5000 nM in assay [2].
Consider `CC(C)c1cc(=O)n(CC(=O)O)cc1NC(=O)c1cccc(-c2cccnc2)c1` [I-59], for which the IC50 is 500 to 5000 nM in assay [1] and 50 to 500 nM in assay [2].
